Results reported in patent US6476056B2, “Heterocycle substituted aryloxyaniline derivatives and their use as MDR ligands” (Taisho Pharmaceutical Co., Ltd., priority 1997, dated 2002).
pIC50: −log10 of the molar value.

Target: T1, MDR (Rattus norvegicus, UniProt P16257)
T1 construct: Crude mitochondria fractions prepared from rat cerebral cortex were used as a receptor sample; from tissue; host or cells: rat cerebral cortex, crude mitochondria fraction
Experiment: MDR receptor binding assay ([3H]PK11195 displacement)
Details: 50% inhibition of [3H]PK11195 (2 nM) binding; crude mitochondria fraction from rat cerebral cortex; 4° C., 90 minutes
Experimental: Experiment [MDR Receptor Binding Assay]
Crude mitochondria fractions prepared from rat cerebral cortex were used as a receptor sample, and [^3H]PK11195 was used as a [^3H]-labeled ligand.
A binding assay using the [^3H]-labeled ligand was carried out according to the following method as described in Journal of Pharmacology and Experimental Therapeutics, 262, 971(1992).
Preparation of Receptor Sample: Rat cerebral cortex was homogenized using a Teflon-coated homogenizer in a 10 mM HEPES buffer (pH 7.4) containing 0.32 M sucrose in ten volumes of the wet weight. The homogenate was centrifuged at 900×g for 10 minutes, and the resulting supernatant was centrifuged at 9,000×g for 10 minutes. The precipitate was suspended in a HEPES buffer to give a protein concentration of 1 mg/ml, and centrifuged at 12,000×g for 10 minutes. The resulting precipitate was suspended in a 50 mM HEPES buffer (pH 7.4) to give a crude mitochondria fraction.
MDR Binding Assay: Mitochondria sample (1.0 mg protein/ml), [^3H]PK11195 (2 nM) and the test drug were reacted at 4° C. for 90 minutes. After completion of the reaction, the reaction mixture was filtered with suction through a glass filter (GF/B) treated with 0.3% polyethyleneimine, and the radioactivity on the filter was measured by a liquid scintillation spectrometer.
The binding at the reaction in the presence of 10 μM PK11195 was defined as non-specific binding of [3H]PK11195, and the difference between total binding and non-specific binding was defined as specific binding.

pIC50 | SMILES
9.37 | COc1ccc(OC)c(CN(C(C)=O)c2cc(Cl)ccc2Oc2ccccc2)c1 [Compound 023]
8.45 | CC(=O)N(Cc1ccccc1Br)c1ccccc1Oc1ccccc1 [Compound 033]
9.17 | CCCOc1ccccc1CN(C(C)=O)c1ccc(Cl)cc1Oc1ccccc1 [Compound 006]
9.95 | COc1ccccc1CN(C(C)=O)c1ccccc1Oc1ccccc1C [Compound 100]
8.05 | COc1ccccc1CN(C(C)=O)c1ccccc1Oc1ccc(Cl)cc1 [Compound 110]
8.98 | COc1ccncc1CN(C(C)=O)c1ccccc1Oc1ccccc1 [Compound 062]
8.90 | CCCC(=O)N(Cc1ccccc1OC)c1ccccc1Oc1ccccc1 [Compound 071]
9.71 | COc1ccc(OC)c(CN(C(C)=O)c2cc(C)ccc2Oc2ccccc2)c1 [Compound 019]
8.09 | COc1ccc(Oc2ccccc2)c(N(Cc2ccccc2OC)C(C)=O)c1 [Compound 126]
8.49 | CC(=O)Oc1ccccc1CN(C(C)=O)c1ccccc1Oc1ccccc1 [Compound 028, N-acetyl-N-(2-acetyloxybenzyl)-2-phenoxyaniline]
9.91 | COc1ccccc1CN(C(C)=O)c1ccccc1Oc1ccc(C)cc1 [Compound 102]
8.49 | CC(=O)N(Cc1ccccc1O)c1ccccc1Oc1ccccc1 [Compound 027, N-acetyl-N-(2-hydroxybenzyl)-2-phenoxyaniline]
9.24 | COc1ccccc1CN(C=O)c1ccccc1Oc1ccccc1 [Compound 087]

SMILES | pIC50
COc1ccccc1CN(C(=O)COC(C)=O)c1ccccc1Oc1ccccc1 [Compound 082, N-acetoxyacetyl-N-(2-methoxybenzyl)-2-phenoxyaniline] | 8.05
